Data on nine compounds can be found in PubChem BioAssay (NCI).

Holding throughout (assay): NCI anticancer screen, dose series, 48 h
Assay [1] relates to HS 578T breast.
The test system of assay [2] is T-47D breast.
Assay [3] has as its system NCI-H226 lung.
The subject of assay [4] is NCI-H23 lung.
The subject of assay [5] is HOP-62 NSCLC.
In assay [6] the test system is M14 melanoma.
Assay [7] deals with SNB-19 CNS.
Assay [8] relates to EKVX NSCLC.

Where “and” joins values, the source holds several entries; their conditions need not be identical. Identical values can stand only once.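 Values below derive from 48-hour exposures of cells grown in 96-well plates, with endpoints linearly interpolated between the two concentrations bracketing the appropriate inhibition level. GI50: concentration for 50% inhibition of growth. The concentration for full growth arrest is given as TGI.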

Regarding `Nc1nccc(-c2c(-c3ccc(F)cc3)nn3cc(C(F)(F)F)ccc23)n1`, the GI50 is over 25 µM in assay [1]; over 25 µM in assay [2]; over 25 µM in assay [3]; over 25 µM in assay [4]; over 21.9 µM in assay [5]; over 25 µM in assay [6]. In addition, the GI50 in assay [7] and in assay [8] was over 25 µM each time. Also, the TGI in assay [1], in assay [2], in assay [3], in assay [4], in assay [5] and in assay [6] was over 25 µM throughout. Besides, the TGI in assay [7] and in assay [8] was over 25 µM throughout.

As for `CC(=O)O[C@H]1CC2C(C3CC[C@H](C(C)CCC(=O)O)[C@]31C)[C@H](OC(C)=O)C[C@@H]1CC3(CC[C@]21C)OOC1(CCC(C)CC1)OO3` (stereo not given in full), the TGI is 13.8 µM and 4.77 µM in assay [1]; 14.1 µM and 8.75 µM in assay [2]; 22.8 µM and 5.34 µM in assay [3]; 15.8 µM and 5.43 µM in assay [4]; 7.39 µM and 3.49 µM in assay [5]; 19.3 µM and 10.9 µM in assay [6]. Besides, the TGI in assay [7] is 20.1 µM and 14.7 µM; in assay [8] it was 4.9 µM and 2.9 µM. Besides, the GI50 in assay [3] was 4.56 µM and 2.11 µM; in assay [7], 7.57 µM and 3.57 µM.

As for `COc1cc(OC)c(OC)cc1/C=C/c1nc2ccccc2s1`, the TGI in assay [1], in assay [2], in assay [3], in assay [4], in assay [5] and in assay [6] was over 100 µM each time. Further, the TGI in assay [7] and in assay [8] was over 100 µM in each case.

As to `ClCCOCCn1cnc2c(Cl)nc(Cl)nc21`, the GI50 was 2.51 µM in assay [1]; 14.2 µM in assay [2]; 16.3 µM in assay [3]; 12.8 µM in assay [4]; 15.7 µM in assay [5]; 13.4 µM in assay [6]. The GI50 in assay [7] is 16.4 µM; in assay [8], 12.5 µM. In addition, the TGI in assay [1] is 9.05 µM; in assay [2], 36.2 µM; in assay [3], 33.8 µM; in assay [4] it was 29.1 µM; in assay [5], 30.5 µM; in assay [6], 27.9 µM. Also, the TGI in assay [7] worked out at 30.5 µM; in assay [8], 27.7 µM.

Consider `O=C(COc1ccc(/C=C2\Oc3ccccc3C2=O)cc1)Nc1nc2ccccc2s1`, for which the GI50 in assay [1] is 18.1 µM; in assay [2], 41.4 µM; in assay [3], 23.3 µM; in assay [4], 18.8 µM; in assay [5] it was over 69.4 µM; in assay [6] it was 38.4 µM. The GI50 in assay [7] was 41.4 µM; in assay [8], 26.5 µM. Besides, the TGI in assay [1] was 96.4 µM; in assay [2], over 100 µM; in assay [3], over 95.5 µM; in assay [4] it was over 100 µM; in assay [5] it was over 100 µM; in assay [6], over 100 µM. In addition, the TGI in assay [7] and in assay [8] was over 100 µM each time.

In the case of `O=C(O)CN(CCN(CC(=O)O)CC(=O)O)CC(=O)O.[Mn+2]`, the GI50 in assay [1], in assay [2], in assay [3], in assay [4], in assay [5] and in assay [6] was over 100 µM throughout. The GI50 in assay [7] and in assay [8] was over 100 µM in each case. Further, the TGI in assay [1], in assay [2], in assay [3], in assay [4], in assay [5] and in assay [6] was over 100 µM each time. In addition, the TGI in assay [7] and in assay [8] was over 100 µM in each case.

Turning to `[O]=[V]([OH])([OH])[OH]`, the GI50 in assay [1], in assay [2], in assay [3], in assay [4], in assay [5] and in assay [6] was over 100 µM in each case. The GI50 in assay [7] and in assay [8] was over 100 µM in each case. The TGI in assay [1], in assay [2], in assay [3], in assay [4], in assay [5] and in assay [6] was over 100 µM throughout. For the same compound, the TGI in assay [7] and in assay [8] was over 100 µM in each case.

`CCSCC1CC(O)(c2ccccc2)C(c2ccccc2)C(c2ccc(F)cc2)O1` (stereo not given): the GI50 was 1.83 µM in assay [1]; 1.56 µM in assay [2]; 1.97 µM in assay [3]; 2.01 µM in assay [4]; 2.08 µM in assay [5]; 1.74 µM in assay [6]. The GI50 in assay [7] was 2.05 µM; in assay [8], 1.82 µM. Besides, the TGI in assay [1] came out at 4.88 µM; in assay [2], 4.8 µM; in assay [3], 4.89 µM; in assay [4] it was 4.87 µM; in assay [5], 4.52 µM; in assay [6], 3.23 µM. Further, the results for the TGI in assay [7] and in assay [8] were 7.6 µM and 6.13 µM, respectively.

For `CC(=O)Oc1ccc(C2=Cc3ccc(OC(C)=O)cc3OC2C)cc1` (stereo not given), the GI50 in assay [1] was 2.75 µM; in assay [2], 12.7 µM; in assay [3], 4.96 µM; in assay [4], 5.3 µM; in assay [5], 6.07 µM; in assay [6], 4.11 µM. Moreover, the GI50 is 14.7 µM in assay [7] and 2.38 µM in assay [8]. Also, the TGI in assay [1] was 7.81 µM; in assay [2], 60.5 µM; in assay [3], 53.8 µM; in assay [4], over 100 µM; in assay [5] it was 57.2 µM; in assay [6] it was 38.1 µM. In addition, the TGI is over 100 µM in assay [7] and 13.5 µM in assay [8].
